Reference: patent US7495023B2, “Thio semicarbazone and semicarbozone inhibitors of cysteine proteases and methods of their use” (The Regents of the University of California, priority 2002, dated 2009)
Like-named read-outs stand apart in the source and are kept apart here.

Experiments:
[1] = target: T. cruzi cathepsin L-like protease (cruzain) (Trypanosoma cruzi, UniProt P25779); test: biochemical
Protocol: IC50 Determinations. Inhibitors were screened for effectiveness against the T. cruzi cathepsin L-like protease (cruzain) using purified recombinant protein. Cruzain (1 nM) was incubated with 20-50000 nM inhibitor in 100 mM sodium acetate-5 mM DTT buffer (pH 5.50, buffer A) for 5 min at room temperature. […] The increase in fluorescence (excitation at 355 nm and emission at 460 nm) was followed with an automated microtiter plate spectrofluorimeter (Molecular Devices, spectraMAX Gemini). Inhibitor stock solutions were prepared at 20 mM in DMSO, and serial dilutions were made in DMSO (0.7% DMSO in assay). Controls were performed using enzyme alone and enzyme with DMSO. IC50 values were determined graphically using inhibitor concentrations in the linear portion of a plot of inhibition versus log [I] (seven concentrations were tested, and at least two were in the linear range).

[2] = tested on: T. cruzi (Y strain); test: Anti-trypanosomal cell culture assay, T. cruzi-infected J774 macrophages; assay type: cell-based; conditions: for effect on T. cruzi in cell culture (trypanocidal / trypanostatic / inactive): inhibitor 10 μM, cultures up to 30 days
Protocol: Drug Screening in Cell Culture. Mammalian cells are routinely cultured in RPMI-1640 medium supplemented with 5-10% heat-inactivated fetal calf serum (FCS) at 37° C. in 5% CO2. The Y strain of T. cruzi is maintained by serial passage in bovine embryo skeletal muscle (BESM) cells. Infectious trypomastigotes are collected from culture supernatants. For drug assays, J774 macrophages were irradiated (5000 rad) and plated onto six-well tissue culture plates 24 h prior to infection with ˜106 trypomastigotes/well. […] Inhibitor stocks (10 mM) in DMSO were stored at 4° C. J774 monolayers treated with a blank containing DMSO are used as a negative control, and monolayers treated with a known trypanocidal inhibitor, 10 μM N-methyl piperazine-Phe-homoPhe-vinyl sulfone phenyl (N-Pip-F-hF-VSPh) acted as a positive control (Engel et al., J. Exp. Med., 188:725-734 (1998)). RPMI medium with or without inhibitor is replaced every 48 h. Cultures are maintained for up to 30 days and monitored daily by contrast phase microscopy. […] The comparative effectiveness of each inhibitor was estimated from plots of the duration of the intracellular cycle of T. cruzi (days) in treated vs untreated control wells.

[3] = target: cruzain (Trypanosoma cruzi, UniProt P25779); assay type: biochemical; conditions: incubation 90 s to 24 h
Protocol: The time dependence of inhibition was determined by incubating cruzain with inhibitors, DMSO, or enzyme alone at room temperature for time points between 90 s and 24 h. The enzymatic activity was determined as above.
A known irreversible inhibitor, K002 (morpholino urea-Phe-homoPhe-vinyl sulfone benzene; Axys Pharmaceuticals Inc., South San Francisco, Calif.), and a known reversible covalent inhibitor, leupeptin, were used as controls for the thio semicarbazones.

[4] = Solubility observations (cell culture medium, methanol); assay type: physicochemical
[5] = tested on: J774 macrophages; test: Toxicity to mammalian host cells in the cell culture assay; assay type: cell-based
Protocol: Drug Screening in Cell Culture. Mammalian cells are routinely cultured in RPMI-1640 medium supplemented with 5-10% heat-inactivated fetal calf serum (FCS) at 37° C. in 5% CO2. The Y strain of T. cruzi is maintained by serial passage in bovine embryo skeletal muscle (BESM) cells. Infectious trypomastigotes are collected from culture supernatants. For drug assays, J774 macrophages were irradiated (5000 rad) and plated onto six-well tissue culture plates 24 h prior to infection with ˜106 trypomastigotes/well. Parasites are removed 2 h postinfection, and the medium is supplemented with the appropriate cysteine protease inhibitor (10 μM). Inhibitor stocks (10 mM) in DMSO were stored at 4° C. J774 monolayers treated with a blank containing DMSO are used as a negative control, and monolayers treated with a known trypanocidal inhibitor, 10 μM N-methyl piperazine-Phe-homoPhe-vinyl sulfone phenyl (N-Pip-F-hF-VSPh) acted as a positive control (Engel et al., J. Exp. Med., 188:725-734 (1998)). RPMI medium with or without inhibitor is replaced every 48 h. Cultures are maintained for up to 30 days and monitored daily by contrast phase microscopy. […] The comparative effectiveness of each inhibitor was estimated from plots of the duration of the intracellular cycle of T. cruzi (days) in treated vs untreated control wells.
The toxicity of compounds to mammalian host cells was also evaluated in the assay.

[6] = 5 min incubation, room temperature, pH 5.50, read-out: IC50 against cruzain

Chain of T. cruzi cathepsin L-like protease (cruzain) (P25779 123-467): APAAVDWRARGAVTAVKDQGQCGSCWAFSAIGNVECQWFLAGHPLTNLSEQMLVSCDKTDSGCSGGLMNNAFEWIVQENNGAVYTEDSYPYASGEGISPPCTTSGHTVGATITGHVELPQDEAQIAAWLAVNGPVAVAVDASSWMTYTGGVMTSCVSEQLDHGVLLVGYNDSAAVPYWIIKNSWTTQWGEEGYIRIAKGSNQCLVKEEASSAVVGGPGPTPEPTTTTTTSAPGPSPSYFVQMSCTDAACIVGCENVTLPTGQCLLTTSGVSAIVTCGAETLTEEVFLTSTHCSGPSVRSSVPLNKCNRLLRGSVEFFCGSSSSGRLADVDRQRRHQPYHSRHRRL
Chain of cruzain (P25779 123-467): as above

| Structure (SMILES) | IC50 [1, 6] | cruzain inhibitory activity, in words [1] | melting point | effect on T. cruzi in cell culture (trypanocidal / trypanostatic / inactive) [2] | also measured |
| --- | --- | --- | --- | --- | --- |
| CC(=NNC(N)=S)c1cccc(Br)c1 [Compound 3b, 3′-Bromoacetophenone Thio Semicarbazone] | 0.2 µM | – | – | trypanocidal effect | time dependence of cruzain inhibition [3]: time-dependent |
| CCC(=NNC(N)=S)c1cccc(Cl)c1 [Compound 2a, 3′-Chloropropiophenone Thio Semicarbazone] | – | – | – | trypanocidal | IC50 [1]: 0.22 µM |
| CCC(NNC(N)=S)c1cccc(Br)c1 (stereo not shown) [Compound 7a, 1-(3′-bromophenyl)propylaminothiourea] | – | poor activity | – | – | time dependence of cruzain inhibition [3]: showed time dependency |
| NC(=S)N1CCC(c2cccc(Cl)c2)=N1 [Compound 4c, 3-(3-Chlorophenyl)-2-pyrazoline-1-thiocarboxamide] | – | – | – | inactive | – |
| CC(=NNC(N)=S)c1cccc(C(F)(F)F)c1 [Compound 3d, 3-Trifluoromethylacetophenone Thio Semicarbazone] | – | – | – | trypanostatic | – |
| NC(=S)NN=Cc1ccc(-c2ccc(Cl)cc2)o1 [Compound 1b, 5-(4-Chlorophenyl)-2-furancarboxaldehyde Thio Semicarbazone] | < 0.3 µM | – | – | – | solubility in the cell culture medium, in words [4]: solubility (1b) appears to be a problem |
| FC(F)(F)c1cccc(NC(=S)N2CCC(c3cccc(Cl)c3)=N2)c1 [Compound 5e, 3-(3-Chlorophenyl)-2-pyrazoline-1-(N-3-tri-fluoromethylphenyl)thiocarboxamide] | – | – | – | – | time dependence of cruzain inhibition [3]: showed time dependency |
| CCC(=NNC(N)=S)c1cccc(C(F)(F)F)c1 [Compound 2b, 3′-Trifluoromethylpropiophenone Thio Semicarbazone] | 0.05 µM | better IC50 values than 1i | – | trypanocidal | – |
| COc1ccccc1-c1ccc(C=NNC(N)=S)o1 [Compound 1c, 5-(2-Methoxyphenyl)-2-furancarboxaldehyde Thio Semicarbazone] | – | – | 209.5 to 211.1 °C | – | IC50 [1]: < 0.3 µM; toxicity to host cells, in words [5]: Toxicity |
| NC(=S)NN=Cc1ccc(-c2cccc(Cl)c2)o1 [Compound 1e, 5-(3-Chlorophenyl)-2-furancarboxaldehyde Thio Semicarbazone] | < 0.3 µM | – | 198.8 to 199.8 °C | trypanostatic | survival of infected host cells ([2]; compound at 5 μM, untreated infected cells die within 5 days): 10 days; concentration at which toxicity to host cells was observed [5]: 10 µM |
| CC(=O)N[C@@H](CC(C)C)C(=O)N[C@@H](CC(C)C)C(=O)N[C@H](C=O)CCCNC(=N)N [leupeptin, reference compound] | – | – | – | – | time dependence of cruzain inhibition [3]: rapidly time-dependent |
| CC1CN(C(N)=S)N=C1c1cccc(C(F)(F)F)c1 (stereo not shown) [Compound 4h, 3-(3-Trifluoromethylphenyl)-4-methyl-2-pyrazoline-1-thiocarboxamide] | – | better than that of 1i | 120.8 to 121.9 °C | trypanocidal | – |
| COc1ccc2ccccc2c1C=NNC(N)=S [Compound 1n, 2-Methoxy-1-naphthaldehyde Thio Semicarbazone] | 0.56 µM | – | – | – | toxicity to host cells, in words [5]: Toxicity |
| CC(=NNC(N)=S)c1ccc(Cl)c(Cl)c1 [Compound 3h, 3′,4′-Dichloroacetophenone Thio Semicarbazone] | – | better IC50 values than 1i | – | trypanocidal | – |
| NC(=S)NN=Cc1ccc(-c2ccc(Br)cc2)o1 [Compound 1f, 5-(4-Bromophenyl)-2-furancarboxaldehyde Thio Semicarbazone] | < 0.3 µM | – | – | trypanostatic | survival of infected host cells / duration of trypanostatic effect ([2]; inhibitor 10 μM (method), untreated infected cells die within 5 days): 14 days; solubility in the cell culture medium, in words [4]: crystallized in the cell culture medium |

More lines, main results first:

| IC50 [1, 6] | cruzain inhibitory activity, in words [1] | melting point | Structure (SMILES) | effect on T. cruzi in cell culture (trypanocidal / trypanostatic / inactive) [2] | also measured |
| --- | --- | --- | --- | --- | --- |
| – | better than that of 1i | 199.3 to 201.4 °C | NC(=S)N1CCC(c2ccc(Cl)c(Cl)c2)=N1 [Compound 4e, 3-(3,4-Dichlorophenyl)-2-pyrazoline-1-thiocarboxamide] | trypanocidal | – |
| 0.08 µM | better than that of 1i | 107.4 to 109.9 °C | CC1CN(C(N)=S)N=C1c1cccc(Br)c1 (stereo not shown) [Compound 4b, 3-(3-Bromophenyl)-4-methyl-2-pyrazoline-1-thiocarboxamide] | trypanocidal effect | time dependence of cruzain inhibition [3]: time-dependent |
| 1.3 µM | – | – | NC(=S)NN=Cc1cccc(Br)c1 [Compound 3a, 3-Bromobenzaldehyde Thio Semicarbazone] | – | time dependence of cruzain inhibition [3]: time-dependent |
| – | better than that of 1i | 159.2 to 161.1 °C | NC(=S)N1CCC(c2cccc(C(F)(F)F)c2)=N1 [Compound 4g, 3-(3-Trifluoromethylphenyl)-2-pyrazoline-1-thiocarboxamide] | inactive | – |
| – | better IC50 values than 1i | – | CC(=NNC(N)=S)c1cc(C(F)(F)F)cc(C(F)(F)F)c1 [Compound 3f, 3′,5′-Bis(trifluoromethyl)acetophenone Thio Semicarbazone] | trypanostatic | – |
| – | better than that of 1i | – | CC1CN(C(N)=S)N=C1c1ccc(Cl)c(Cl)c1 (stereo not shown) [Compound 4f, 3-(3,4-Dichlorophenyl)-4-methyl-2-pyrazoline-1-thiocarboxamide] | trypanostatic | solubility in methanol, in words ([4]; methanol): poorest solubility in methanol |
| – | – | 131.3 °C (dec.) | CC1CN(C(N)=S)N=C1c1cccc(Cl)c1 (stereo not shown) [Compound 4d, 3-(3-Chlorophenyl)-4-methyl-2-pyrazoline-1-thiocarboxamide] | trypanocidal | – |
| – | – | 172.9 to 174.5 °C | NC(=S)N1CCC(c2cccc(Br)c2)=N1 [Compound 4a, 3-(3-Bromophenyl)-2-pyrazoline-1-thiocarboxamide] | – | decrease in activity as compared to 1i (cruzain) ([1]; compared to 1i): 2 fold; time dependence of cruzain inhibition [3]: time-dependent |
| 1 to 2 µM | – | 197.5 to 198.8 °C | S=C(Nc1cccc(Cl)c1)N1CCC(c2cccc(Br)c2)=N1 [Compound 5d, 3-(3-Bromophenyl)-2-pyrazoline-1-(IL3-chlorophenyl)thiocarboxamide] | no effect on the parasites | – |
